# Measurements published in US20200009135A1, “THERAPEUTIC APPLICATIONS OF MALT1 INHIBITORS” (MEDIVIR AB, priority 2017, published 2020).
# Assays:
# [1] = Follow-up 5 day cell growth assay WSU-NHL (CC50); format: cell-based; details: human, WSU-NHL cells
# [2] = tested on: CMV-specific (NLV+) CD8+ Teff cells expressing IFNγ; assay: Human whole blood loop assay with CMV lysate; format: cell-based; details: 4 μM, 6 hours, alone and in combination with CMV lysate 1 μg/ml
# Method: Each blood loop contained 2 mL of freshly taken human whole blood from HLA-A2+ and CMV+ donors.
# Freshly drawn whole blood from healthy volunteers (2 mL) in a tube was incubated under rotation at 37° C. for 6 hours. […] After 2 hours Brefeldin-A was added to allow intra-cellular analysis of cytokines (IFNγ and TNFα). Antigen-specific CD8+ T-cells were identified by fluorescence-conjugated tetrameric complexes of HLA-A2 molecules loaded with the NLV peptide epitope ([…]) of CMV pp65,
# [3] = tested on: MB49 mouse bladder cancer; assay: MB49 mouse bladder cancer model, Treg and Teff cells by flow cytometry; format: in vivo; details: C57BL/6 mice
# Method: Evaluation of Treg and Teff cell numbers was performed by flow cytometry. From a tumour sample (resected piece or biopsy), tumour cells and TILs are dispersed into single cell suspension. Cells are then washed with PBS and stained by antibodies. Samples were stained with antibodies to identify T-cell subpopulations; CD3-BV421 (Biolegend 100228), CD8-FITC (Biolegend 100706), CD4-PE (Biolegend 116005), CD25-PerCP Cy5.5 (Biolegend 101912, clone 3C7), for 15 minutes at room temperature, followed by addition of erythrocyte lysis buffer (cat no. 349202, BD BioSciences, Franklin Lakes, N.J., USA) for 8 minutes. Cells were permeabilized with FoxP3 fix/Perm (cat no. 421401, Biolegend San Diego, Calif., USA), washed with FoxP3 Perm buffer (Cat no. 421402, Biolegend) and stained with an Alexa Fluor® 647 labelled FoxP3 antibody (Cat no. 320013, Biolegend) according to the manufacturer's instructions. The cells were washed twice in PBS with 1% BSA and analyzed on a FACSCanto II (BD Biosciences). Data analysis was performed using FlowJo software (TreeStar, Ashland, Oreg., USA). For intracellular staining of cytokines, inclusion of transport inhibitors e.g. Monensin or Brefeldin A.
# The murine bladder urothelial carcinoma cell line Mouse Bladder (MB)-49 is a C57BL/6-derived cell line cultured at 37 C and 5% CO2 in DMEM+GlutaMax supplemented with 10% FBS, 0.1 mM sodium pyruvate, 100 U/ml Penicillin-Streptomycin. For determining the effects of MALT1 inhibitor on the presence of T-effector and T-regulatory cells in vivo, 3×10^5 MB49 cells were injected s.c. on the right flank of female C57BL/6 mice. […] As reference 200 μg of anti-CD25 antibody (clone PC61) in 100 μL PBS was administered i.v. on day 8 and 11. The levels of Treg and Teff cells were analyzed by flow cytometry in the tumour (T) and in tumour-draining lymph nodes (TDLN) on day 12.
# [4] = tested on: panel of human cancer cell lines; assay: Human cancer cell line panel (Oncolead), GI50, 72 hours; format: cell-based
# [5] = tested on: IL-2 expression in Jurkat (E6-1) cells; assay: IL-2 expression assay (down-stream MALT1 activity, Jurkat E6-1); format: cell-based; details: Homo sapiens; Jurkat E6-1, PMA/Ionomycin stimulation, 24 hours
# Method: Down-stream MALT1 activity was measured by PMA/lonomycin-induced expression of IL-2 in Jurkat (E6-1) cells. Compounds were distributed in a 96 well plate, 8-point concentration series, 1:3 dilution. Jurkat clone E6-1, 4×10^4 cells/well, were added, and stimulated by PMA/lonomycin (1:500 dilution) for 24 hours at 37° C. Measurement was performed using a MesoScale Sector S600 with the Human IL-2 Tissue Culture kit according to the manufacturers recommendation.
# [6] = p.o. once daily day 8-11, two doses, analysed day 12
compound,measurement,setting,value
"CO[C@@H](C)c1c(NC(=O)Nc2cnc(-n3nccn3)c(Cl)c2)cnc2cc(Cl)nn12 [Example 2, (S)-1-(5-chloro-6-(2H-1,2,3-triazol-2-yl)pyridin-3-yl)-3-(2-chloro-7-(1-methoxyethyl)pyrazolo[1,5-a]pyrimidin-6-yl)urea]",CC50 at 5 days,[1],77 µM
same,activated antigen-specific IFNγ+CD8+ T cells,[2],increase
same,amount of CD8/CD25 double positive cells (Teff) in TDLN,"[3]; p.o. once daily day 8-11, analysed day 12",not reduced
same,percentage of FOXP3 positive cells (Treg) out of CD3/CD4 double positive cells in tumour,[3]; [6],"reduced, in a dose-dependent manner"
same,percentage of FOXP3 positive cells (Treg) out of CD3/CD4 double positive cells in tumour-draining lymph nodes,[3]; [6],"reduced, in a dose-dependent manner"
same,antiproliferative effect on the majority of cell lines tested,"[4]; 81 solid and 12 hematological cancer cell lines, 50 μM to 0.05 nM",essentially no antiproliferative effect
same,GI50,"[4]; Homo sapiens, WSU-NHL cell line, not confirmed in follow-up assay",< 1 µM
same,IC50,[5],0.01 µM
